The target of one experiment is T1, MIF (Homo sapiens, UniProt P14174).
T1 sequence (P14174 1-115): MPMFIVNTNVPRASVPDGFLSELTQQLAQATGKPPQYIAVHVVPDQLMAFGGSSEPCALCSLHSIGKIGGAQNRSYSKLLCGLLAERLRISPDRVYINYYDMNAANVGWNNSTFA
Kind of experiment: Nuclease assay of Example 3 (MIF inhibitory activity, Table 4). Particulars: nuclease assay of Example 3. The class given is biochemical. Further details: (%) inhibition of MIF nuclease activity: concentration or dose not given beside the values. The procedure, abridged: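 Human genomic DNA (200 ng), pcDNA (200 ng) or PS^30-type substrates (1 μM) were incubated with MIF (0.25-8 μM final) in 10 mM Tris-HCl pH 7.0, 10 mM MgCl2, 1 mM DTT at 37 °C for 1 h (pcDNA, small substrates) or 4 h (genomic DNA). Cleavage was assessed by agarose or PAGE electrophoresis with EtBr staining and chemiluminescent detection of biotin-labelled DNA.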

In experiment [1] the test system is HeLa cells or neuronal cells. Kind of experiment: Cell death assay of Example 3 (MNNG, alamarBlue; protection against parthanatos, Table 4). To be noted: 1 μM test compound, MNNG-induced cell death, alamarBlue. It counts as cell-based. The procedure, abridged:
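HeLa or neuronal cells (1×10^4/well) were pretreated 1 h at 37° C with 1 μM compound, exposed to MNNG for 15 min, washed, then re-incubated 18 h with 1 μM compound. Viability was read by alamarBlue fluorescence (ex 560/em 590 nm). Cell death was expressed relative to control wells.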

Molecules are shown by their SMILES.

`COCC[C@@H]1NC(=O)[C@H](Cc2ccccc2)N(C)C(=O)[C@@H](C)NC(=O)CN(C)C(=O)COc2cccc(c2)[C@@H](CCc2ccc(OC)c(OC)c2)OC(=O)[C@@H]2CCCCN2C(=O)C(=O)C(C)(C)COC(=O)C=CCCN(C)C1=O` [compound 65]: on MIF, the “(%) inhibition of MIF nuclease activity” value is reported as 20.1%. Further, in experiment [1], the “(%) inhibition of cell death” value was found to be 54.4%.

`COc1ccc(CC[C@H]2OC(=O)[C@@H]3CCCCN3C(=O)C(=O)C(C)(C)COC(=O)C=CCCN(C)C(=O)[C@H](CC(C)C)NC(=O)[C@H](Cc3ccccc3)N(C)C(=O)[C@@H](C)NC(=O)CN(C)C(=O)COc3cccc2c3)cc1OC` [compound 66]: the “(%) inhibition of MIF nuclease activity” value at MIF was found to be 67.0%. Besides, the “(%) inhibition of cell death” value in experiment [1] was 71.4%.

In the case of `COc1ccc(CC[C@H]2OC(=O)[C@@H]3CCCCN3C(=O)C(=O)C(C)(C)COC(=O)C=CCCN(C)C(=O)[C@@H](CC(C)C)NC(=O)[C@H](Cc3ccccc3)N(C)C(=O)[C@@H](C)NC(=O)CN(C)C(=O)COc3cccc2c3)cc1OC` [compound 67], the “(%) inhibition of MIF nuclease activity” value on MIF is 76.3%. Also, the “(%) inhibition of cell death” value in experiment [1] is recorded as 73.7%.

As to `COc1ccc(CC[C@H]2OC(=O)[C@@H]3CCCCN3C(=O)C(=O)C(C)(C)COC(=O)C=CCCN(C)C(=O)[C@H](Cc3ccccc3)NC(=O)[C@H](Cc3ccccc3)N(C)C(=O)[C@@H](C)NC(=O)CN(C)C(=O)COc3cccc2c3)cc1OC` [compound 68], the “(%) inhibition of MIF nuclease activity” value at MIF came to 44.0%. Also, the “(%) inhibition of cell death” value in experiment [1] is on record as 58.0%.

With `COc1ccc(CC[C@H]2OC(=O)[C@@H]3CCCCN3C(=O)C(=O)C(C)(C)COC(=O)C=CCCN(C)C(=O)[C@@H](Cc3ccccc3)NC(=O)[C@H](Cc3ccccc3)N(C)C(=O)[C@@H](C)NC(=O)CN(C)C(=O)COc3cccc2c3)cc1OC` [compound 69], on MIF, the “(%) inhibition of MIF nuclease activity” value is reported as 20.7%. The “(%) inhibition of cell death” value in experiment [1] came to 55.7%.

`COc1ccc(CC[C@H]2OC(=O)[C@@H]3CCCCN3C(=O)C(=O)C(C)(C)COC(=O)C=CCCN(C)C(=O)[C@H](Cc3ccc(F)cc3)NC(=O)[C@H](Cc3ccccc3)N(C)C(=O)[C@@H](C)NC(=O)CN(C)C(=O)COc3cccc2c3)cc1OC` [compound 70]: the “(%) inhibition of MIF nuclease activity” value on MIF turned out to be 25.2%. The “(%) inhibition of cell death” value in experiment [1] turned out to be 53.8%.

`COc1ccc(CC[C@H]2OC(=O)[C@@H]3CCCCN3C(=O)C(=O)C(C)(C)COC(=O)C=CCCN(C)C(=O)[C@@H]3CCCN3C(=O)[C@H](Cc3ccccc3)N(C)C(=O)[C@@H](C)NC(=O)CN(C)C(=O)COc3cccc2c3)cc1OC` [compound 71]: the “(%) inhibition of MIF nuclease activity” value on MIF is on record as 25.3%. Moreover, the “(%) inhibition of cell death” value in experiment [1] was 57.0%.

Regarding `COc1ccc(CC[C@H]2OC(=O)[C@@H]3CCCCN3C(=O)C(=O)C(C)(C)COC(=O)C=CCCN(C)C(=O)[C@H](CC3CCCCC3)NC(=O)[C@H](Cc3ccccc3)N(C)C(=O)[C@@H](C)NC(=O)CN(C)C(=O)COc3cccc2c3)cc1OC` [compound 72], the “(%) inhibition of MIF nuclease activity” value on MIF was 21.2%. In experiment [1], the “(%) inhibition of cell death” value was 55.3%.

For the molecule `COc1ccc(CC[C@H]2OC(=O)[C@@H]3CCCCN3C(=O)C(=O)C(C)(C)COC(=O)C=CCCN(C)C(=O)[C@H](Cc3ccc4ccccc4c3)NC(=O)[C@H](Cc3ccccc3)N(C)C(=O)[C@@H](C)NC(=O)CN(C)C(=O)COc3cccc2c3)cc1OC` [compound 73], the “(%) inhibition of MIF nuclease activity” value on MIF came to 40.2%. Further, the “(%) inhibition of cell death” value in experiment [1] amounted to 53.0%.

As for `COc1ccc(CC[C@H]2OC(=O)[C@@H]3CCCCN3C(=O)C(=O)C(C)(C)COC(=O)C=CCCN(C)C(=O)[C@H](C(C)C)NC(=O)[C@H](Cc3ccccc3)N(C)C(=O)[C@@H](C)NC(=O)CN(C)C(=O)COc3cccc2c3)cc1OC` [compound 74], the “(%) inhibition of MIF nuclease activity” value on MIF is on record as 31.5%. In addition, the “(%) inhibition of cell death” value in experiment [1] was found to be 52.6%.

Take `COc1ccc(CC[C@H]2OC(=O)[C@@H]3CCCCN3C(=O)C(=O)C(C)(C)COC(=O)C=CCCN(C)C(=O)[C@H](c3ccccc3)NC(=O)[C@H](Cc3ccccc3)N(C)C(=O)[C@@H](C)NC(=O)CN(C)C(=O)COc3cccc2c3)cc1OC` [compound 75]: at MIF, the “(%) inhibition of MIF nuclease activity” value is 34.9%. Further, in experiment [1], the “(%) inhibition of cell death” value was found to be 52.8%.

Regarding `COc1ccc(CC[C@H]2OC(=O)[C@@H]3CCCCN3C(=O)C(=O)C(C)(C)COC(=O)C=CCCN(C)C(=O)[C@@H](C)NC(=O)[C@H](C(C)C)N(C)C(=O)[C@@H](Cc3ccccc3)NC(=O)[C@H](CC(C)C)N(C)C(=O)CCC(=O)Nc3cccc2c3)cc1OC` [compound 78], the “(%) inhibition of MIF nuclease activity” value on MIF came out at 9.0%. The “(%) inhibition of cell death” value in experiment [1] is 44.7%.

With `CCC[C@@H]1NC(=O)[C@H](C(C)C)N(C)C(=O)[C@@H](Cc2ccccc2)NC(=O)[C@H](CC(C)C)N(C)C(=O)CCC(=O)Nc2cccc(c2)[C@@H](CCc2ccc(OC)c(OC)c2)OC(=O)[C@@H]2CCCCN2C(=O)C(=O)C(C)(C)COC(=O)C=CCCN(C)C1=O` [compound 79], the “(%) inhibition of MIF nuclease activity” value at MIF was 6.7%. Besides, in experiment [1], the “(%) inhibition of cell death” value stood at 43.4%.

In the case of `COCC[C@@H]1NC(=O)[C@H](C(C)C)N(C)C(=O)[C@@H](Cc2ccccc2)NC(=O)[C@H](CC(C)C)N(C)C(=O)CCC(=O)Nc2cccc(c2)[C@@H](CCc2ccc(OC)c(OC)c2)OC(=O)[C@@H]2CCCCN2C(=O)C(=O)C(C)(C)COC(=O)C=CCCN(C)C1=O` [compound 80], on MIF, the “(%) inhibition of MIF nuclease activity” value worked out at 10.3%. Also, the “(%) inhibition of cell death” value in experiment [1] is recorded as 49.5%.

With `COc1ccc(CC[C@H]2OC(=O)[C@@H]3CCCCN3C(=O)C(=O)C(C)(C)COC(=O)C=CCCN(C)C(=O)[C@H](CC(C)C)NC(=O)[C@H](C(C)C)N(C)C(=O)[C@@H](Cc3ccccc3)NC(=O)[C@H](CC(C)C)N(C)C(=O)CCC(=O)Nc3cccc2c3)cc1OC` [compound 81], on MIF, the “(%) inhibition of MIF nuclease activity” value was 12.3%. For the same molecule, in experiment [1], the “(%) inhibition of cell death” value is recorded as 49.8%.

Consider `COc1ccc(CC[C@H]2OC(=O)[C@@H]3CCCCN3C(=O)C(=O)C(C)(C)COC(=O)C=CCCN(C)C(=O)[C@@H](CC(C)C)NC(=O)[C@H](C(C)C)N(C)C(=O)[C@@H](Cc3ccccc3)NC(=O)[C@H](CC(C)C)N(C)C(=O)CCC(=O)Nc3cccc2c3)cc1OC` [compound 82], for which the “(%) inhibition of MIF nuclease activity” value on MIF is recorded as 8.5%. In experiment [1], the “(%) inhibition of cell death” value worked out at 47.0%.

In the case of `COc1ccc(CC[C@H]2OC(=O)[C@@H]3CCCCN3C(=O)C(=O)C(C)(C)COC(=O)C=CCCN(C)C(=O)[C@H](Cc3ccccc3)NC(=O)[C@H](C(C)C)N(C)C(=O)[C@@H](Cc3ccccc3)NC(=O)[C@H](CC(C)C)N(C)C(=O)CCC(=O)Nc3cccc2c3)cc1OC` [compound 83], the “(%) inhibition of MIF nuclease activity” value on MIF was determined as 12.0%. In addition, the “(%) inhibition of cell death” value in experiment [1] amounted to 49.8%.

Consider `COc1ccc(CC[C@H]2OC(=O)[C@@H]3CCCCN3C(=O)C(=O)C(C)(C)COC(=O)C=CCCN(C)C(=O)[C@@H](Cc3ccccc3)NC(=O)[C@H](C(C)C)N(C)C(=O)[C@@H](Cc3ccccc3)NC(=O)[C@H](CC(C)C)N(C)C(=O)CCC(=O)Nc3cccc2c3)cc1OC` [compound 84], for which, at MIF, the “(%) inhibition of MIF nuclease activity” value worked out at 10.8%. Moreover, the “(%) inhibition of cell death” value in experiment [1] was 51.0%.

As for `COc1ccc(CC[C@H]2OC(=O)[C@@H]3CCCCN3C(=O)C(=O)C(C)(C)COC(=O)C=CCCN(C)C(=O)[C@H](Cc3ccc(F)cc3)NC(=O)[C@H](C(C)C)N(C)C(=O)[C@@H](Cc3ccccc3)NC(=O)[C@H](CC(C)C)N(C)C(=O)CCC(=O)Nc3cccc2c3)cc1OC` [compound 85], the “(%) inhibition of MIF nuclease activity” value at MIF amounted to 10.7%. In addition, the “(%) inhibition of cell death” value in experiment [1] turned out to be 49.4%.

Consider `COc1ccc(CC[C@H]2OC(=O)[C@@H]3CCCCN3C(=O)C(=O)C(C)(C)COC(=O)C=CCCN(C)C(=O)[C@@H]3CCCN3C(=O)[C@H](C(C)C)N(C)C(=O)[C@@H](Cc3ccccc3)NC(=O)[C@H](CC(C)C)N(C)C(=O)CCC(=O)Nc3cccc2c3)cc1OC` [compound 86], for which the “(%) inhibition of MIF nuclease activity” value on MIF was 22.7%. Also, the “(%) inhibition of cell death” value in experiment [1] is recorded as 53.0%.

For `COc1ccc(CC[C@H]2OC(=O)[C@@H]3CCCCN3C(=O)C(=O)C(C)(C)COC(=O)C=CCCN(C)C(=O)[C@H](CC3CCCCC3)NC(=O)[C@H](C(C)C)N(C)C(=O)[C@@H](Cc3ccccc3)NC(=O)[C@H](CC(C)C)N(C)C(=O)CCC(=O)Nc3cccc2c3)cc1OC` [compound 87], the “(%) inhibition of MIF nuclease activity” value at MIF turned out to be 17.1%. In addition, the “(%) inhibition of cell death” value in experiment [1] came out at 51.3%.

Consider `COc1ccc(CC[C@H]2OC(=O)[C@@H]3CCCCN3C(=O)C(=O)C(C)(C)COC(=O)C=CCCN(C)C(=O)[C@H](Cc3ccc4ccccc4c3)NC(=O)[C@H](C(C)C)N(C)C(=O)[C@@H](Cc3ccccc3)NC(=O)[C@H](CC(C)C)N(C)C(=O)CCC(=O)Nc3cccc2c3)cc1OC` [compound 88], for which the “(%) inhibition of MIF nuclease activity” value at MIF is 21.3%. The “(%) inhibition of cell death” value in experiment [1] turned out to be 52.7%.

As for `COc1ccc(CC[C@H]2OC(=O)[C@@H]3CCCCN3C(=O)C(=O)C(C)(C)COC(=O)C=CCCN(C)C(=O)[C@H](C(C)C)NC(=O)[C@H](C(C)C)N(C)C(=O)[C@@H](Cc3ccccc3)NC(=O)[C@H](CC(C)C)N(C)C(=O)CCC(=O)Nc3cccc2c3)cc1OC` [compound 89], the “(%) inhibition of MIF nuclease activity” value on MIF was 12.6%. The “(%) inhibition of cell death” value in experiment [1] was 49.9%.

As to `COc1ccc(CC[C@H]2OC(=O)[C@@H]3CCCCN3C(=O)C(=O)C(C)(C)COC(=O)C=CCCN(C)C(=O)[C@H](c3ccccc3)NC(=O)C(C(C)C)N(C)C(=O)[C@@H](Cc3ccccc3)NC(=O)[C@H](CC(C)C)N(C)C(=O)CCC(=O)Nc3cccc2c3)cc1OC` (stereo partly drawn) [compound 90], the “(%) inhibition of MIF nuclease activity” value on MIF was found to be 15.8%. Also, in experiment [1], the “(%) inhibition of cell death” value was 48.5%.

The record behind these values is US20220372014A1, “NEUROPROTECTIVE COMPOUNDS AND METHODS OF USE THEREOF” (The Johns Hopkins University, priority 2019, published 2022).
